Active and inactive are the calls of the source. Rule as the data show it, for most assays here: actives have a measured EC50 and inactives only a lower limit.
Columns and labels:
[1] = molecular target: T1, Microphthalmia-associated transcription factor (Homo sapiens, UniProt O75030); assay: TRPM1 promoter luciferase signal decrease, dose response, MITF inhibitor project, cell-based, SK-MEL-5, cherry-picked, set 3 (AID 493073); format: functional
T1 sequence (O75030 whole entry): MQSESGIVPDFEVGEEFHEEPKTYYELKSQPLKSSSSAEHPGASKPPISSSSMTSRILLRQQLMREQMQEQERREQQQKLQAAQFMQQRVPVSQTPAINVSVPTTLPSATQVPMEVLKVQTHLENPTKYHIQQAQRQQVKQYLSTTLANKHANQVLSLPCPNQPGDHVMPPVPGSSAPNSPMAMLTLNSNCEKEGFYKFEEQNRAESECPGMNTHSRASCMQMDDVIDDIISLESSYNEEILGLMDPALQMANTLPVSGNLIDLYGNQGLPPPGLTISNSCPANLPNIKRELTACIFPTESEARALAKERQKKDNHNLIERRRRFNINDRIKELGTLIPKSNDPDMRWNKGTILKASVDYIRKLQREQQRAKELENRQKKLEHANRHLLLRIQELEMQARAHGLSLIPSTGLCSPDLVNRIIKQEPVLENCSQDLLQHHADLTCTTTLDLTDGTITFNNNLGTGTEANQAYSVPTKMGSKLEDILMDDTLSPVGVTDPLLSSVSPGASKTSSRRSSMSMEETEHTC

[2] = cytotoxicity in HEK-293T cells, dose response, cytotoxicity control for TCR NF-kB inhibitor project, luminescence, T-cell screen hits (AID 489026); format: functional, cell-based;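 also: cells exposed to compound about 14 hours before the viability readout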
[3] = molecular target: T2, RNA-binding protein pos-1 (Caenorhabditis elegans, UniProt G5EF15); assay: inhibitors of POS-1/mex-3 RNA binding, dose response, biochemical, fluorescence polarization (AID 1964);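 also: purified POS-1 fused to maltose binding protein made in E. coli; potency of compounds blocking POS-1 binding to fluorescent RNA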
T2 sequence (G5EF15 whole entry): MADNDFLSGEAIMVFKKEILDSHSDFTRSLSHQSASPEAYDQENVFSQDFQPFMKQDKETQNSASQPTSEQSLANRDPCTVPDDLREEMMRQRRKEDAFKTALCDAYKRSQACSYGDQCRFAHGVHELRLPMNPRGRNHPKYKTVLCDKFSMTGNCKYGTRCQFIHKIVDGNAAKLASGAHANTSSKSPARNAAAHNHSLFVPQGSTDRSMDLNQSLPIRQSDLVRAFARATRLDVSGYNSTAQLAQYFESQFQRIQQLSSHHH

[4] = Luminescence Cell-Based Dose Confirmation HTS to Identify Activators of 5'UTR Stem-Loop Driven Alpha-Synuclein mRNA Translation in H4 Neuroglioblastoma Cells. [Related pubchem assays: 1829 (Project Summary), 1814 (Primary HTS)]; format: functional
[5] = Luminescence Cell-Based Dose Response HTS to Identify Activators of Luciferase Translation or Activity in H4 […] Cells. [Related pubchem assays: 1829 (Project Summary), 1814 (Primary HTS)]; format: functional
H4 = assay: Luminescence Cell-Based Dose Response HTS to Identify Activators of 5'UTR Stem-Loop Driven Prion Protein mRNA Translation in H4 Neuroglioblastoma Cells. [Related pubchem assays: 1829 (Project Summary), 1814 (Primary HTS)]; format: functional; conditions: Homo sapiens
[6] = molecular target: T3, Zinc finger protein mex-5 (Caenorhabditis elegans, UniProt Q9XUB2); assay: MEX-5/TCR-2 RNA interaction inhibitors, dose response, biochemical, C. elegans, fluorescence polarization (AID 1960)
T3 sequence (Q9XUB2 whole entry): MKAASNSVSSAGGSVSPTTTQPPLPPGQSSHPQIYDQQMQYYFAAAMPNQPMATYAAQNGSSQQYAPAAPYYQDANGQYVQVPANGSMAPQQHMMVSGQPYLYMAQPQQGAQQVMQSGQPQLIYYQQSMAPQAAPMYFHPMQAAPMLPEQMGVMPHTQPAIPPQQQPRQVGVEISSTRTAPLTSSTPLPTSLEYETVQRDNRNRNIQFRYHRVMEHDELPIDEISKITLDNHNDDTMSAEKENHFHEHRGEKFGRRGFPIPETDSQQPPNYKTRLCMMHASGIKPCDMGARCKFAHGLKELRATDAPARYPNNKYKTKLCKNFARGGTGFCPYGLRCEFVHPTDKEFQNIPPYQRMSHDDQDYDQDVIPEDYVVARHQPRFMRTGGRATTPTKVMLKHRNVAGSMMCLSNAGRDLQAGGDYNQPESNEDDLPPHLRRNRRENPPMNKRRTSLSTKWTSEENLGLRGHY

[7] = molecular target: Heat shock protein HSP 90-alpha (Homo sapiens, UniProt P07900); format: functional, organism-based
BJ [8] = assay: cytotoxicity toward BJ-TERT fibroblasts, dose response, cell-based, RAS-independent, luminescence (AID 1933); format: functional; conditions: Homo sapiens
BJ [9] = assay: cells; format: functional, cell-based; conditions: Homo sapiens
BJ [10] = assay: cytotoxicity toward BJ-TERT-LT-ST fibroblasts, dose response, cell-based, RAS-independent, luminescence (AID 1935); format: functional; conditions: Homo sapiens;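 also: BJ fibroblasts immortalized with TERT plus LT and ST oncogenes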
[11] = cytotoxicity toward DRD oncogenic fibroblasts, dose response, cell-based, non-viral oncogenic, luminescence (AID 1934); format: functional; conditions: Homo sapiens
H9c2 = assay: cells; format: functional, cell-based; conditions: Rattus norvegicus, H9c2, Myocardium;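 also: confirmatory concentration-response retest of ultra-high-throughput screening hits for modulation of myocardial damage; cell death induced by hydrogen peroxide oxidative stress; compound pretreatment for 60 min then peroxide exposure for 2 h; potency is for protecting the cells against peroxide damage rather than for killing them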
[12] = inhibitors of intracellular T. cruzi replication, confirmation, NIH3T3 host cells, beta-gal luminescence (AID 2044); format: functional, cell-based;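 also: intracellular parasites grown in NIH/3T3 mouse fibroblasts as host cells; luminescent beta-galactosidase reporter signal from transgenic T. cruzi replicating inside host cells; inhibitors lower the luminescence signal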
[13] = cytotoxicity toward NIH3T3 fibroblasts, dose response, counter-screen, cell-based, ATP luminescence, mouse fibroblasts (AID 2010); format: functional;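 also: cells exposed to compound for about 90 hours before reading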
[14] = molecular target: T4, Ubiquitin-conjugating enzyme E2 N (Homo sapiens, UniProt P61088); format: functional;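 also: Dose-response confirmation in a TR-FRET assay detecting UBC13-driven polyubiquitin chain formation, inhibition measured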
T4 sequence (P61088 whole entry): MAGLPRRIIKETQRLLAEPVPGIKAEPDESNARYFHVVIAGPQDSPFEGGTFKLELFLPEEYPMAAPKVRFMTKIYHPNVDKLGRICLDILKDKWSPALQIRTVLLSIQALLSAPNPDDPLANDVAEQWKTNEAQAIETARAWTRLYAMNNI

[15] = NIH-3T3 fibroblast cytotoxicity, dose response, cytotoxicity control, cell-based, fluorescence, Alamar Blue, secondary assay (AID 2327); format: functional;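 also: NIH-3T3 mouse fibroblasts cultured with fluconazole at 8 µg/mL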
[16] = C. albicans growth with fluconazole, confirmation, fluorescence, retest (AID 2467); format: functional, cell-based
[17] = growth suppression of PTEN-null colon cells, dose response, cell-based, HCT116 PTEN knockout (AID 1047); format: functional;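 also: HCT116 colon tumor cells with PTEN knocked out; cells exposed to compound for 60 hours before readout; potency for loss of cell viability measured by luminescence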
[18] = growth suppression of beta-catenin-knockout colon cells, dose response, cell-based, HCT116, human colon tumor (AID 1045); format: functional;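 also: HCT116 colon tumor cells with beta catenin knocked out; cells exposed to compound for 60 hours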
[19] = molecular target: T5, Heat shock factor protein 1 (Mus musculus, UniProt P38532); assay: HSF1 potentiators in luciferase reporter cells, confirmation, cell-based, NIH3T3, luminescence, dose retest (AID 435004); format: functional;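 also: stress induced by proteasome inhibitor MG132 added 30 min after compound; luciferase reporter driven by HSF1 response element in NIH3T3 cells; actives raise luminescence as potentiators of the MG132 stress response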
T5 sequence (P38532 whole entry): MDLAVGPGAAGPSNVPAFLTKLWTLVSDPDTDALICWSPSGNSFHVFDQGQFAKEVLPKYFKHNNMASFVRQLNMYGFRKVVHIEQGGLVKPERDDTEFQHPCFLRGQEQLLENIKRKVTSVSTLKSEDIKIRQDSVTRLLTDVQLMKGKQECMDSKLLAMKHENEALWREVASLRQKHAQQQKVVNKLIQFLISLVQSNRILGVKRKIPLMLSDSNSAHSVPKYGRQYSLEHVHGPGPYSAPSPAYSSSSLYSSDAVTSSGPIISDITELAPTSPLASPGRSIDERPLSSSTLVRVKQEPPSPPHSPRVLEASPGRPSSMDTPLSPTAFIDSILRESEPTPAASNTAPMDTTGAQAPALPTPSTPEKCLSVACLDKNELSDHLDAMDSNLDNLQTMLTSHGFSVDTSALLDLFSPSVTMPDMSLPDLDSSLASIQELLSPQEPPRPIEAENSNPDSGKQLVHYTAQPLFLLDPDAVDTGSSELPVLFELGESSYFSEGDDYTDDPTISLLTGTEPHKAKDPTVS

BJ [20] = assay: cytotoxicity toward Ras-transformed BJeLR fibroblasts, dose response, cell-based, alamar blue fluorescence, cherrypicked samples (AID 2631); format: functional; conditions: Homo sapiens;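 also: confirmatory dose-response assay in RAS-dependent BJ fibroblasts engineered with TERT, LT and ST, with cytotoxicity read by fluorescence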
Hexokinase = molecular target: T6, Hexokinase (Trypanosoma brucei, UniProt Q38C41); assay: Confirmation assay for inhibitors of Trypanosoma brucei hexokinase 1-Analogue-first series. [Related pubchem assays (depositor defined):AID1430, AID1632, AID2516, AID2560, AID2579, AID2600, AID449725, AID492951]; format: functional
T6 sequence (Q38C41 whole entry): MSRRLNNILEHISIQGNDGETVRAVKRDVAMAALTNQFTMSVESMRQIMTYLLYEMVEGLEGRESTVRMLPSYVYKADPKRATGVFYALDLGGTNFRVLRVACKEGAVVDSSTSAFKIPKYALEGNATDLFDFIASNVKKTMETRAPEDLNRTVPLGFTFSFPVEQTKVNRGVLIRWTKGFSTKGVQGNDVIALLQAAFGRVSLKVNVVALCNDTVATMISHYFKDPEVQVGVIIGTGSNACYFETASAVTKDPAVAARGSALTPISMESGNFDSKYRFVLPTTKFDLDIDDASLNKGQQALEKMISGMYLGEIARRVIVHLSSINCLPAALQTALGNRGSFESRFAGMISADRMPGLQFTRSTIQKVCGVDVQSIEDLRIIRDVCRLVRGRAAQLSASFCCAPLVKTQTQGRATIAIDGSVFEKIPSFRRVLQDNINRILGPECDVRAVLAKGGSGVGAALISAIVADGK

For `COCCCn1nc2c3c(ccc2c1O)C(=O)c1ccccc1C3=O`, the AC50 [1] was 8.86 µM (active).
For `O=C(Nc1ccc(S(=O)(=O)Nc2ccc(F)cc2)cc1)c1ccc(CN2CCOCC2)cc1`, the IC50 [2] was > 80 µM (inactive).
With `O=C(/C=C/N1CCOCC1)c1ccc(-c2ccccc2)cc1` the EC50 [3] was > 300 µM (not active), the EC50 [4] was 3.53 µM (active) and the EC50 [5] was 36.8 µM (active). For the same molecule, the EC50 (H4) was 57.7 µM (active), the EC50 [6] was > 300 µM (not active) and the AC50 [7] was 1.68 µM (active).
In the case of `CC(Oc1ccc(Cl)cc1Cl)C(=O)Nc1ccncc1` (stereo not given), the EC50 (BJ [8]) is reported as > 150 µM (not active), the EC50 (BJ [9]) is reported as 23.9 µM (active) and the EC50 (BJ [10]) is reported as > 150 µM (not active). For the same molecule, the EC50 [11] was > 150 µM (not active) and the IC50 [2] was > 80 µM (inactive).
With `CCCC(c1nnnn1C(C)(C)CC)N(CCCO)Cc1cc2cc(C)cc(C)c2nc1O` (stereo not given) the IC50 (H9c2) was 38.7 µM (inactive).
With `COc1cc(-c2[nH]c(C(=O)NC3CCN(Cc4ccccc4)CC3)cc3c4ccccc4nc2-3)cc(OC)c1OC` the EC50 [12] was 0.125 µM (active), the EC50 [13] was 5.61 µM (active) and the IC50 [14] was > 20 µM (inactive).
For `CCOC(=O)C(=Cc1cc(=O)c(OC)co1)C(=O)OCC`, the EC50 [15] was 8.28 µM (inconclusive), the EC50 (BJ [8]) was 8.75 µM (active) and the EC50 (BJ [9]) was 7.57 µM (inconclusive). For the same molecule, the EC50 [16] was 0.367 µM (active), the EC50 [17] was 3.55 µM (active) and the EC50 [18] was 2.93 µM (active). The EC50 (BJ [10]) was 4.28 µM (active), the EC50 [11] was 4.24 µM (inconclusive) and the EC50 [19] was 15.2 µM (active). For the same molecule, the EC50 (BJ [20]) was 0.592 µM (active).
In the case of `O=S1(=O)CCC(NC(=S)SCc2ccccc2Br)C1` (stereo not given), the AC50 [1] is reported as 25.6 µM (active).
With `Clc1cccc(Cl)c1/C=N/Nc1c(Cl)cncc1Cl` the EC50 (BJ [8]) was 13.7 µM (active), the EC50 (BJ [9]) was > 150 µM (inconclusive) and the EC50 (BJ [10]) was 76.6 µM (active). The EC50 [11] was 4.33 µM (active) and the IC50 [2] was > 80 µM (inactive).
For `CCOC(=O)CSc1nnc(CSc2nc(O)c3ccccc3n2)n1-c1ccccc1`, the IC50 (H9c2) was > 79 µM (inactive).
In the case of `O=C(Nc1ccccc1)n1sc2ccccc2c1=O`, the IC50 (Hexokinase) is reported as > 25 µM (inactive).

From ChEMBL document CHEMBL1201862, “PubChem BioAssay data set” (2004)
